Measured values published in ChEMBL document CHEMBL1201862, “PubChem BioAssay data set” (2004).
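Growth conditions: 96-well plates. Treatment: test compound, 48 hours, 5 concentrations. Analysis: linear interpolation between bracketing concentrations; unreached endpoints set to highest concentration. GI50: concentration for 50% inhibition of growth.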 Calls of active or inactive are those of the source. Cut-off read from the data, not from the text of the source: active = GI50 up to about 1.1 µM and inactive = higher.

Tests used:
Test in all cases: growth of human tumour cells (NCI), 48 h
SN12C = system: SN12C
K562 = system: K562
RPMI-8226 = system: RPMI-8226
IGROV-1 = system: IGROV-1
SK-MEL-2 = system: SK-MEL-2
SW-620 = system: SW-620
UACC-257 = system: UACC-257
SF-295 = system: SF-295
OVCAR-3 = system: OVCAR-3
NCI-H23 = system: NCI-H23
SNB-75 = system: SNB-75
SF-268 = system: SF-268
NCI-H522 = system: NCI-H522
HT-29 = system: HT-29
SK-MEL-5 = system: SK-MEL-5
CCRF-CEM = system: CCRF-CEM
NCI-H460 = system: NCI-H460
SK-MEL-28 = system: SK-MEL-28
SNB-19 = system: SNB-19
HOP-62 = system: HOP-62

With `CCOC(=O)CCc1ccc(NC(=O)/C=C/c2ccc([N+](=O)[O-])o2)cc1` the GI50 (SN12C) was 1.43 µM (inactive), the GI50 (K562) was 0.27 µM (active) and the GI50 (RPMI-8226) was 0.286 µM (active). For the same compound, the GI50 (IGROV-1) was 3.5 µM (inactive), the GI50 (SK-MEL-2) was 2.06 µM (inactive) and the GI50 (SW-620) was 0.547 µM (active). For the same compound, the GI50 (UACC-257) was 0.798 µM (active), the GI50 (SF-295) was 3.48 µM (inactive) and the GI50 (OVCAR-3) was 0.61 µM (active). For the same compound, the GI50 (NCI-H23) was 0.863 µM (active), the GI50 (SNB-75) was 2.16 µM (inactive) and the GI50 (SF-268) was 1.12 µM (inactive). The GI50 (NCI-H522) was 0.287 µM (active), the GI50 (HT-29) was 0.925 µM (active) and the GI50 (SK-MEL-5) was 1.49 µM (inactive). For the same compound, the GI50 (CCRF-CEM) was 0.177 µM (active), the GI50 (NCI-H460) was 2.34 µM (inactive) and the GI50 (SK-MEL-28) was 0.773 µM (active). The GI50 (SNB-19) was 9.82 µM (inactive) and the GI50 (HOP-62) was 3.27 µM (inactive).

With `CCCS(=O)(=O)O` the GI50 (K562) was > 100 µM (inactive), the GI50 (RPMI-8226) was > 100 µM (inactive) and the GI50 (IGROV-1) was > 100 µM (inactive). The GI50 (SK-MEL-2) was > 100 µM (inactive), the GI50 (SW-620) was > 100 µM (inactive) and the GI50 (UACC-257) was > 100 µM (inactive). The GI50 (SF-295) was > 100 µM (inactive), the GI50 (OVCAR-3) was > 100 µM (inactive) and the GI50 (NCI-H23) was > 100 µM (inactive). The GI50 (SNB-75) was > 100 µM (inactive), the GI50 (SF-268) was > 100 µM (inactive) and the GI50 (NCI-H522) was > 100 µM (inactive). The GI50 (HT-29) was > 100 µM (inactive), the GI50 (SK-MEL-5) was > 100 µM (inactive) and the GI50 (CCRF-CEM) was > 100 µM (inactive). For the same compound, the GI50 (NCI-H460) was > 100 µM (inactive), the GI50 (SK-MEL-28) was > 100 µM (inactive) and the GI50 (SNB-19) was > 100 µM (inactive). The GI50 (HOP-62) was > 100 µM (inactive).

`CC1C(c2ccc3c(c2)OCO3)c2cc3c(cc2OC1N1CCCC1)OCO3` (centres undefined) was tested, and the GI50 (SN12C) was 39.6 µM (inactive), the GI50 (K562) was 24.4 µM (inactive) and the GI50 (RPMI-8226) was 29.2 µM (inactive). For the same compound, the GI50 (IGROV-1) was 30.3 µM (inactive), the GI50 (SK-MEL-2) was 31.3 µM (inactive) and the GI50 (SW-620) was 32.5 µM (inactive). The GI50 (UACC-257) was 34.5 µM (inactive), the GI50 (SF-295) was 24 µM (inactive) and the GI50 (OVCAR-3) was 25.8 µM (inactive). The GI50 (NCI-H23) was 38.7 µM (inactive), the GI50 (SNB-75) was 15.1 µM (inactive) and the GI50 (SF-268) was 23.1 µM (inactive). The GI50 (NCI-H522) was 18 µM (inactive), the GI50 (HT-29) was 31 µM (inactive) and the GI50 (SK-MEL-5) was 17.7 µM (inactive). The GI50 (CCRF-CEM) was 26.4 µM (inactive), the GI50 (NCI-H460) was 34.4 µM (inactive) and the GI50 (SK-MEL-28) was 37.1 µM (inactive). For the same compound, the GI50 (SNB-19) was 20.9 µM (inactive) and the GI50 (HOP-62) was 49.5 µM (inactive).

For `NC(=O)Cc1nc2c(O)ncnc2n1C1OC(CO)C(O)C1O` (centres undefined), the GI50 (SN12C) was > 100 µM (inactive), the GI50 (K562) was > 100 µM (inactive) and the GI50 (RPMI-8226) was > 100 µM (inactive). For the same compound, the GI50 (IGROV-1) was > 100 µM (inactive), the GI50 (SK-MEL-2) was > 100 µM (inactive) and the GI50 (SW-620) was > 100 µM (inactive). For the same compound, the GI50 (UACC-257) was > 100 µM (inactive), the GI50 (SF-295) was > 100 µM (inactive) and the GI50 (OVCAR-3) was > 100 µM (inactive). The GI50 (NCI-H23) was > 100 µM (inactive), the GI50 (SNB-75) was > 100 µM (inactive) and the GI50 (SF-268) was > 100 µM (inactive). For the same compound, the GI50 (NCI-H522) was > 100 µM (inactive), the GI50 (HT-29) was > 100 µM (inactive) and the GI50 (SK-MEL-5) was > 100 µM (inactive). The GI50 (CCRF-CEM) was > 100 µM (inactive), the GI50 (NCI-H460) was > 100 µM (inactive) and the GI50 (SK-MEL-28) was > 100 µM (inactive). For the same compound, the GI50 (SNB-19) was > 100 µM (inactive) and the GI50 (HOP-62) was > 100 µM (inactive).

With `CCCCCCCCCCCCCCCC[N+](C)(C)Cc1ccc(C[N+](C)(C)CCCCCCCCCCCCCCCC)cc1` the GI50 (SN12C) was 1.95 µM (inactive), the GI50 (K562) was 2.06 µM (inactive) and the GI50 (RPMI-8226) was 2.63 µM (inactive). For the same compound, the GI50 (IGROV-1) was 2.43 µM (inactive), the GI50 (SK-MEL-2) was 2.04 µM (inactive) and the GI50 (SW-620) was 2.99 µM (inactive). The GI50 (UACC-257) was 3.4 µM (inactive), the GI50 (SF-295) was 1.74 µM (inactive) and the GI50 (OVCAR-3) was 2.54 µM (inactive). The GI50 (NCI-H23) was 1.88 µM (inactive), the GI50 (SNB-75) was 1.94 µM (inactive) and the GI50 (SF-268) was 2.38 µM (inactive). The GI50 (NCI-H522) was 2.58 µM (inactive), the GI50 (HT-29) was 2.28 µM (inactive) and the GI50 (SK-MEL-5) was 6.12 µM (inactive). The GI50 (CCRF-CEM) was 1.46 µM (inactive), the GI50 (NCI-H460) was 2.51 µM (inactive) and the GI50 (SK-MEL-28) was 2.3 µM (inactive). For the same compound, the GI50 (SNB-19) was 2.52 µM (inactive) and the GI50 (HOP-62) was 4.76 µM (inactive).
